Results published in PMC6194685, “The antityrosinase and antioxidant activities of flavonoids dominated by the number and location of phenolic hydroxyl groups” (Chinese Medicine, 2018).

Experiments:
mushroom tyrosinase [1] = molecular target: T1, mushroom tyrosinase (Agaricus bisporus, UniProt C7FF04); assay: Determination of the inhibition type and inhibition constant (Lineweaver–Burk plots); format: biochemical; details: plots of enzyme activity versus enzyme concentration, oxidation of L-DOPA
mushroom tyrosinase [2] = molecular target: T1, mushroom tyrosinase; assay: as above; format: biochemical; details: for inhibition type: Lineweaver–Burk double-reciprocal plots, tyrosinase diphenolase; for KIS (inhibitor binding with enzyme–substrate complex): plot of vertical intercept (1/Vmapp) versus inhibitor concentration, oxidation of L-DOPA
Experimental: By Lineweaver–Burk plot, the inhibition type was assayed. The inhibition constant was assayed by the second plots of the apparent Km/Vmapp or 1/Vmapp versus the concentration of the inhibitor.

[3] = discussion; no reference given; cited from earlier work
[4] = tested on: lipid peroxidation in rat liver mitochondria; assay: Lipid peroxidation assay in liver mitochondria in vitro (Fe2+/vitamin C); format: biochemical, Sprague–Dawley (SD) rats; details: n = 3, read-out: IC50, inhibiting lipid peroxidation
Experimental: Using the diagnostic kits from Biyuntian (Shanghai, China), liver mitochondria were obtained. The liver mitochondria from Sprague–Dawley (SD) rats were obtained, according to the references of Zuo et al.. In the tubes, 1 mL of mitochondria liquid, 0.5 mL of antioxidant solution, 0.25 mL of 1 mM Vitamin C, and 0.25 mL of 0.1 mM Fe^2+ were added in turn. The positive control group contains 0.5 mL of 0.05 M PBS buffer, instead of the antioxidant solution. The blank group was added 1 mL of mitochondrial liquid and 1 mL of 0.05 M PBS buffer. […] The test tubes were placed in the water for 30 min at 95 °C, then centrifuged for 10 min at 1372g. The wavelength used was 532 nm. Each sample was examined in three times and averaged.

[5] = Hydroxyl free radical scavenging activity; details: n = 3; read-out: IC50, hydroxyl free radical scavenging capacity
Experimental: In the tube, 0.2 mL of samples, 1 mL of PBS buffer (pH = 7.4),0.2 mL of 5 mmol/L phenanthroline, 0.2 mL of 7.5 mmol/L FeSO4, 0.2 mL of 0.05% H2O2, 3.2 mL of ethanol were added in turn for 20 min in 37 °C. The wavelength used was 536 nm. Each sample was examined in three times and averaged. The hydroxyl free radical scavenging activity was examined according to the formula:4 Hydroxylfreeradicalscavengingactivity%=AC-AS/AC×100% where AS is the absorbance value with samples and AC is the absorbance value without samples.

[6] = Superoxide free radical scavenging activity (pyrogallol self-oxidation); details: n = 3; read-out: IC50, superoxide free radical scavenging capacity
Experimental: According to the references of Shen et al., superoxide free radical scavenging capacity was measured using Varioskan Flash multifunction microplate reader (Thermo scientific, USA) and 96 wells plates. Each well was added 264 μL PBS buffer (pH = 8.2), 12 μL samples of different concentrations, 25 °C for 10 min. Then 24 μL of 1.25 mmoL/L pyrogallol solution was added and shaken 3 s quickly. The blank group is ethanol. Absorbance values were measured every 30 s. The reaction lasted 5 min in 37 °C. The wavelength used was 320 nm. Each sample was measured in triplicate and averaged. The slope is the self-oxidation rate of pyrogallol. The lower slope indicated the better superoxide free radicals scavenging capacity. Each sample was examined in three times and averaged. The inhibitory rate was examined according to the formula:5 Superoxidefreeradicalscavengingactivity%=SC-SS/SC×100% where SC is the slope value without samples and SS is the slope value with samples.

[7] = ABTS free radical scavenging activity; details: n = 3; read-out: IC50, ABTS free radical scavenging capacity
Experimental: According to the references of Wan et al., ABTS free radical scavenging capacity was measured. […] ABTS ^+ was produced by reacting 2.45 mmol/L potassium persulfate (K2S2O8) with the ABTS stock solution. The reaction lasted 12–16 h at room temperature in the dark. […] Samples (0.5 mL) were added to ABTS^+ (5 mL) for 6 min. The control group contains 0.5 mL of ethanol and 5 mL of ABTS^+ solution. Each sample was examined in three times and averaged.

[8] = DPPH free radical scavenging activity; details: n = 3; read-out: IC50, DPPH free radical scavenging capacity
Experimental: According to the references of Lee et al., DPPH free radical scavenging capacity was measured. […] In room temperature and a dark environment, the reaction lasted 30 min. […] Each sample was examined in three times and averaged.

[9] = discussion; no reference given; cited from earlier work; remark: listed apart in the source
[10] = parameters: method as in Xu [31]; details: ref Xu [31]; cited from earlier work
[11] = parameters: method as in Xu [31]; details: ref Xu [31]; cited from earlier work; remark: listed apart in the source
[12] = parameters: method as in Xu [31]; details: ref Xu [31]; cited from earlier work; remark: listed apart in the source

T1 sequence (C7FF04 2-392): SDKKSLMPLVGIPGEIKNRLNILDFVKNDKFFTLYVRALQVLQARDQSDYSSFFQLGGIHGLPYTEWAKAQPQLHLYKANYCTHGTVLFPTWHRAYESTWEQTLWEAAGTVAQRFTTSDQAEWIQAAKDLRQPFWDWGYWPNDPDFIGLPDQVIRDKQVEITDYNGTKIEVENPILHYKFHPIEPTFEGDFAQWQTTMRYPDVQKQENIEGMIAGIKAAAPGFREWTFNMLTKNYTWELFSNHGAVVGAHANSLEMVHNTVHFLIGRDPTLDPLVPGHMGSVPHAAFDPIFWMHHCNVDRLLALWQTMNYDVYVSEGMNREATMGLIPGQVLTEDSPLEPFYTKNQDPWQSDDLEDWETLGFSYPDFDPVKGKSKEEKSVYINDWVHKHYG
T1 sequence (G1K3P4 1-150 partner): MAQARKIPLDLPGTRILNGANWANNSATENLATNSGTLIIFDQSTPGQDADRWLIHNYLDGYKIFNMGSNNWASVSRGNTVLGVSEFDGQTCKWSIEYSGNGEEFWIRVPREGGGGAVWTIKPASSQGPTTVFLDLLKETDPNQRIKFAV

For `CC(C)=CC[C@@H](O)C1=CC(=O)c2c(O)ccc(O)c2C1=O` [Shikonin], the “inhibitory mechanism (reversibility)” value (mushroom tyrosinase [1]) was “reversible inhibitor”, the inhibition type (mushroom tyrosinase [2]) was “competitive–uncompetitive mixed type inhibitor” and the “KIS (Fig. 3c)” value (mushroom tyrosinase [2]; plot of intercept versus concentration of shikonin) was 48.6 µmol/L. The “KIS (inhibitor binding with enzyme–substrate complex)” value (mushroom tyrosinase [2]) was 48.6 µM, the reducing ability [3] was 0.431% and the IC50 [4] was 16.7 µM. It also gave an IC50 [5] of 18.3 µM, an IC50 [6] of 31.5 µM and an IC50 [7] of 27.3 µM. For the same compound, the IC50 [8] was 83.2 µM.

In the case of `O=c1cc(-c2ccccc2)oc2cc(O)c(O)c(O)c12` [Baicalein], the “inhibitory mechanism (reversibility)” value (mushroom tyrosinase [1]) is reported as “reversible inhibitors”, the inhibition type (mushroom tyrosinase [2]) is reported as “same inhibitor type as shikonin” and the “KIS (inhibitor binding with enzyme–substrate complex)” value (mushroom tyrosinase [2]) is reported as 38.4 µM. For the same compound, the IC50 [4] was 12.5 µM, the IC50 [5] was 11.6 µM and the IC50 [6] was 16.1 µM. It also gave an IC50 [7] of 9.09 µM and an IC50 [8] of 58.6 µM.

With Isoeugenol the “inhibitory mechanism (reversibility)” value (mushroom tyrosinase [1]) was “reversible inhibitors”, the inhibition type (mushroom tyrosinase [2]) was “same inhibitor type as shikonin” and the “KIS (inhibitor binding with enzyme–substrate complex)” value (mushroom tyrosinase [2]) was 64.7 µM. It also gave an IC50 [4] of 25.1 µM, an IC50 [5] of 32.5 µM and an IC50 [6] of 38.2 µM. For the same compound, the IC50 [7] was 36.4 µM and the IC50 [8] was 102 µM.

In the case of `CC(C)=CCCC1=CC(=O)c2c(O)ccc(O)c2C1=O` [deoxy-shikonin], the “maximum inhibition, DPPH-radical scavenging assay” value [9] is given as 0.440%.

With `O=C1c2c(O)cc(O)cc2O[C@H](c2cc(O)c(O)c(O)c2)[C@H]1O` [Dihydromyricetin] the “inhibitory mechanism (reversibility)” value (mushroom tyrosinase [1]) was “reversible inhibitors”, the inhibition type (mushroom tyrosinase [2]) was “same inhibitor type as shikonin” and the “KIS (inhibitor binding with enzyme–substrate complex)” value (mushroom tyrosinase [2]) was 23.6 µM. It also gave an IC50 [4] of 6.25 µM, an IC50 [5] of 4.2 µM and an IC50 [6] of 7.6 µM. The IC50 [7] was 3.41 µM, the “scavenging capacity of alkane radical (ROO·)” value [10] was 63.9% and the “scavenging capacity of hydroxyl radical (·OH)” value [11] was 83.9%. The “scavenging capacity of superoxide radical (O2·)” value [12] was 90.0% and the IC50 [8] was 12.4 µM.

For `O=C(/C=C/c1ccc(O)c(O)c1)O[C@H](Cc1ccc(O)c(O)c1)C(=O)O` [Rosmarinic acid], the “inhibitory mechanism (reversibility)” value (mushroom tyrosinase [1]) was “reversible inhibitors”, the inhibition type (mushroom tyrosinase [2]) was “same inhibitor type as shikonin” and the “KIS (inhibitor binding with enzyme–substrate complex)” value (mushroom tyrosinase [2]) was 29.8 µM. It also gave an IC50 [4] of 8.33 µM, an IC50 [5] of 8.3 µM and an IC50 [6] of 12.3 µM. It also gave an IC50 [7] of 6.82 µM and an IC50 [8] of 28.5 µM.
